The test system of one data set is S. aureus DK825. The data set is described as follows: Coagulase production (bound or free). It counts as cell-based, Staphylococcus aureus.
The format of data set [1] is physicochemical. As for the experimental part: c-di-GMP, CGMP and 5′-GMP nucleotides used. c-di-GMP used in the studies in this example was biochemically synthesized in pure form using a recently described novel synthesis method that produces a pure and high yielding preparation of c-di-GMP diammonium salt (FIG. 5A) (Hayakawa et al., 2003). Before use, the purity and stability of lyophilized c-di-GMP was determined by first resuspending the molecule in 0.9% NaCl creating a 2 mM solution then confirmed by HPLC analysis and ESI-TOF MS spectrometry. The cGMP (guanosine 3′, 5′-cyclic monophosphate, Sigma #G7504) and 5′-GMP (guanosine 5′-monophosphate, TCI, Tokyo Kasei Kogyo Co.) nucleotides were also used. Unless otherwise stated, a 4 mM stock solution of each nucleotide in 0.9% NaCl was prepared and stored at 4° C. until needed.
c-di-GMP stability tests. Although the term c-di-GMP is used here, c-di-GMP diammonium salt (and not the free diphosphoric acid) was used for these stability tests. (i) In boiling water: A 2 mM solution of c-di-GMP in water was prepared by dissolving 2.42 mg (3.3 μmol) of c-di-GMP in 1.65 mL of ion-exchanged/ion-free water (prepared by passing distilled water through ion-exchange resins). This solution was heated at 100° C. for 10 min and then concentrated under reduced pressure. The resulting residual was subjected to the HPLC analysis under conditions shown below. (ii) In pH 3 solution: From the 2 mM c-di-GMP aqueous solution described above, 500 μl (containing […] of c-di-GMP) was dissolved in 20 mL of 1 mM HCl to produce a solution with pH 3 (confirmed by pH meter). The resulting solution was stirred at room temperature for 1 h and then neutralized by the addition of 200 mL of a 0.1 mM NaOH. Water was evaporated under reduced pressure and the resulting residue was subjected to HPLC analysis. (iii) In pH 10 solution: From the 2 mM c-di-GMP aqueous solution described above, 500 μl (containing […] of c-di-GMP) was dissolved in 200 mL of a 0.1 mM NaOH aqueous solution to produce a solution with pH 10 (confirmed by pH meter). The resulting solution was stirred at room temperature for 1 h. The reaction was quenched by addition of 20 mL of a 1 mM HCl. Concentration of the resulting neutral solution under reduced pressure gave a residual material that was subjected to the HPLC analysis. The HPLC analysis was performed on a Waters 2695 Separation Module with a Waters 2996 Photodiode Array Detector under the following conditions. Column: Nacalai Tesque COSMOSIL 5C18-AR-II column (4.6 mm (diameter)×250 mm (length)); detection: 254 nm of UV ray; temperature: 40° C.; eluent: A=0.9% NaCl (aq), B=a 20:80 mixture of water:acetonitrile; flow rate:1 mL/min; 0-10 min: A 100%; 10-60 min: linear gradient from A100%/B 0% to A 40% to B 60%.

The values below come from patent US8367716B2 (priority 2003, dated 2013).

On to `Nc1nc2c(ncn2C2OC3COP(=O)(O)OC4C(COP(=O)(O)OC3C2O)OC(n2cnc3c(=O)[nH]c(N)nc32)C4O)c(=O)[nH]1` (centres unmarked) [c-di-GMP, 3′,5′-cyclic diguanylic acid], for which the “coagulase production treated vs untreated” value with S. aureus DK825 is “no difference”. For the same compound, in data set [1], the solubility result is listed as “soluble”, the “stability in 100 mM ammonium acetate buffer” value is “stable”, the “stability in 100 mM phosphate buffer” value is given as “stable” and the “stability in 0.9% NaCl solution (monomeric structure)” value is listed as “very stable”. Moreover, in data set [1], the “stability in physiological saline” value is listed as “stable”, the “stability of 2 mM stock solution in water” value was “formation of an aggregated product” and the “stability of neat (lyophilized) form on storage” value is listed as “formed aggregate molecules”.
